Source: article PMC12040169 (PLOS Biology, 2025)

Test: in vitro
Conditions: human, hela cells, % viability

| Structure (SMILES) | viability at 28.5 h, 10 µM | viability at 28.5 h, 10 µM (bulk resorufin, single well) |
| --- | --- | --- |
| CCc1nnc(NS(=O)(=O)c2ccc(N/C=C3\C(=O)N(c4ccc(Cl)cc4)N=C3C)cc2)s1 [CBK262416] | 110% | – |
| COc1ccc2oc(=O)c(C(=O)Nc3ccc(C(=O)O)cc3)cc2c1 [CBK262242] | 98.4% | – |
| Cc1cc(NS(=O)(=O)c2cc(OCC(N)=O)c(C)cc2Cl)no1 [CBK266456] | 103% | – |
| Cc1nc2ccc(C(=O)NCCCN3Cc4ccccc4C3)cc2[nH]1 [CBK283301] | 90.3% | – |
| Clc1ccc(COc2nccnc2OC2CCN(Cc3ccc4c(c3)OCO4)CC2)cc1Cl [CBK083109T] | 86.6% | – |
| COC(=O)c1cn([C@H]2CO[C@H]3[C@@H]2OC[C@@H]3NC(=O)NC2CCCCC2)nn1 [CBK289499] | 82.4% | – |
| O=C(CN1CCSCC1)NNC(=S)Nc1ccccc1 [CBK262445] | 102% | – |
| O=C(Nc1ncccc1O)c1cnc2c(cnn2C2CCCC2)c1 [CBK305246] | 99.9% | – |
| CCOC(=O)c1c(NC(=O)CN2CCCCC2)sc2c1CCCC2=O [CBK263224] | 112% | – |
| CC(C)(CN)CN(Cc1ccccc1C(F)(F)F)C(=O)NCc1ccc(F)cc1 [CBK002471C] | 87.8% | – |
| O=C(O)C1CCC(N2C(=O)C3C4CCC(C4)C3C2=O)CC1 (centres unmarked) [CBK287183] | 82.2% | – |
| CS(=O)(=O)N1CCN(c2ccccc2NC(=O)c2cccnc2)CC1 [CBK267604] | 119% | – |
| CC(C)(C)NC(=O)N1CCC2(CC1)OCc1cc(Br)ccc1O2 [CBK060739] | – | 106% |
| O=c1c2c(-c3ccc(F)cc3)csc2ncn1CC1(CO)CCOCC1 [CBK306822] | 88% | – |
| COc1cc(C2CC(=O)N(c3cc(C)on3)C(=O)C2)cc(OC)c1OC [CBK006810] | 109% | – |
| CCCn1c(C)cc2cc(NC(=O)C(C)n3ccnc3)ccc21 (centres unmarked) [CBK281547] | 85.8% | – |
| O=C(CCCc1ccccc1)Nc1scc2c(=O)oc3ccccc3c12 [CBK265435] | 90.1% | – |
| COCc1cc(=O)[nH]c(N2CCN(Cc3ccccc3)CC2)n1 [CBK270253] | 88.4% | – |
| O=C1CC(NCC2CCCO2)C(=O)N1c1ccc(N2C(=O)CC(NCC3CCCO3)C2=O)cc1 (centres unmarked) [CBK263962] | 89.9% | – |
| CC(C)COC(=O)N1CCN(C2CCc3cc(-c4ccc([S+](C)[O-])cc4)ccc3C2)CC1 (centres unmarked) [CBK173425] | 89.8% | – |
| C[C@H](C(=O)N1CCCC1)C1CC[C@@]2(C)Cc3sc(NC(=O)C4CC4)nc3[C@@H](C)[C@@H]2[C@H]1O (some centres unmarked) [CBK289432] | 103% | – |

| Structure (SMILES) | viability at 28.5 h, 10 µM | viability at 28.5 h, 10 µM (bulk resorufin, single well) |
| --- | --- | --- |
| COc1cc(C(C[N+](=O)[O-])c2c(C)[nH]c3ccccc23)ccc1O (centres unmarked) [CBK115317] | 82.9% | – |
| CC#CC(=O)N1CCCC(Cc2ccc(F)cc2F)(C(=O)OCC)C1 (centres unmarked) [CBK307051] | 111% | – |
| Cc1cc(NC(=O)CN(C)C(=O)c2cnc(Cl)c(Cl)c2)no1 [CBK306132] | 101% | – |
| Cc1ccc(S(=O)(=O)N(CC(=O)N2CCN(C)CC2)Cc2ccc(Cl)cc2Cl)cc1 [CBK265144] | 100% | – |
| CC(C)[C@H](NC(=O)C1CC(=O)N(c2ccc(F)cc2)C1)C(=O)N1CCC(C(=O)O)CC1 (some centres unmarked) [CBK286669] | 94.8% | – |
| Cc1cc(C)n(CC(C)NC(=O)c2cc(C(F)(F)F)nn2C)n1 (centres unmarked) [CBK281671] | 92.2% | – |
| O=C(O)c1cccc(Nc2nc3ccccc3nc2NS(=O)(=O)c2ccc(Br)cc2)c1 [CBK296113] | 111% | – |
| Cc1cnc(C(=O)OCc2cc(=O)n3ccsc3n2)cn1 [CBK296978] | 95.5% | – |
| Cc1nc(-c2ccccc2)sc1CNC(=O)Cc1ccccc1F [CBK092372] | 104% | – |
| O=C(Nc1[nH]nc(O)c1Cc1c(Cl)cccc1Cl)C1CCCCC1 [CBK084558] | 92.9% | – |
| O=C(NC(c1ccc(Cl)cc1)c1ccsc1)C1CCN(C(=O)Oc2ccc(Cl)cc2)CC1 (centres unmarked) [CBK060044] | 88.5% | – |
| CC(C)c1cc2cc3ccc(=O)oc3cc2o1 [CBK033944] | 93.6% | – |
| Cc1cc(Cl)cc(Br)c1OCCNCCN(C)C [CBK267791G] | 102% | – |
| Nc1ncc(-c2cccc3ccccc23)nc1NC1CCCCC1 [CBK063588] | 94% | – |
| CN(C)CCN(C)c1cc(C(F)(F)F)nc(NCc2ccc(Cl)cc2)n1 [CBK009668] | 93% | – |
| COc1ccc(S(=O)(=O)Nc2ccncc2)cc1N(C)S(=O)(=O)c1ccccc1 [CBK267179] | 103% | – |
| CCn1nc(C)c(C(C)NC(=O)c2ccn(C(F)F)n2)c1C (centres unmarked) [CBK281534] | 79.8% | – |
| C#CCOC(=O)NC(=O)c1csnn1 [CBK006685] | 114% | – |
| Cc1nnc(NS(=O)(=O)c2ccc(Br)cc2)s1 [CBK068266] | 101% | – |
| Cc1nc2n(n1)C(C(=O)Nc1ccc(C)c(C)c1)CC(=O)N2 (centres unmarked) [CBK288223] | 105% | – |
| CC(=O)N[C@H]1CC[C@]2(C)CCC([C@H](C)C(=O)NC3CCCC3)[C@H](O)[C@H]2[C@@H]1C (some centres unmarked) [CBK289436] | 79.6% | – |

| Structure (SMILES) | viability at 28.5 h, 10 µM | viability at 28.5 h, 10 µM (bulk resorufin, single well) |
| --- | --- | --- |
| CCn1c(C)nc2cc(NC(=O)Cn3cc(C(=O)NC4CCCCC4)ccc3=O)ccc21 [CBK286095] | 92.9% | – |
| Cn1ccnc1C1(O)CCN(C(=O)c2ccc(F)cc2)CC1 [CBK283541] | 91.5% | – |
| O=C(C1CCCCC1)N1CCC(n2c(=O)[nH]c3ccccc32)CC1 [CBK149703] | 92.8% | – |
| CC1(C)C=Cc2cc(/C(N)=N/O)ccc2O1 [CBK006095] | 96.2% | – |
| O=C(O)CC(Cc1ccc(Cl)cc1)C(=O)Nc1ccc([N+](=O)[O-])cc1 (centres unmarked) [CBK261973] | 89.7% | – |
| COC(=O)[C@H]1CCc2ccccc2N1C(=O)C(C)C [CBK285474] | 100% | – |
| Cc1cccn2c(=O)c(/C=C3\SC(=S)NC3=O)c(NCCCN3CCOCC3)nc12 [CBK264904] | 104% | – |
| COc1ccc(OCCN(C)c2cnn(-c3ccc(C(=O)O)cc3)c(=O)c2Cl)cc1 [CBK296627] | 104% | – |
| O=C(c1ccoc1)N1CCC2(CCCN(Cc3ccc4ccccc4c3)C2)C1 (centres unmarked) [CBK132811] | 90.1% | – |
| O=C(O)c1cc2c(s1)CN(C1CCCCC1)C2 [CBK286885] | 96.2% | – |
| COc1cc(C(=O)N2CCC3(CC2)CC(=O)c2ccc(-c4ccc(NS(C)(=O)=O)cc4)cc2O3)cc(OC)c1C [CBK170163] | 90.8% | – |
| O=C(Cc1n[nH]c(=O)[nH]c1=O)N/N=C/c1ccc(C(=O)O)cc1 [CBK263525] | 99.5% | – |
| Cc1ccc(/C=N\NC(=O)c2cccc(Cl)c2)s1 [CBK016469] | 90.8% | – |
| O=C(CCc1cccnc1)NC1CCCC1 [CBK200239] | 97.9% | – |
| O=C(Nc1ccc2nc(-c3ccc(-c4nc5ccc(NC(=O)c6cccc7ccccc67)cc5[nH]4)cc3)[nH]c2c1)c1cccc2ccccc12 [CBK261160] | 120% | – |
| O=C(Cc1nn[nH]n1)Nc1ccc(F)c(Cl)c1 [CBK006384] | 95.4% | – |
| O=C(Cc1cccnc1)N1Cc2ccccc2C1 [CBK200320] | 90.5% | – |
| Clc1ccc(COc2nccnc2N2CCN(CCOc3ccccc3)CC2)cc1Cl [CBK083091T] | 95.2% | – |
| O=C(NCC(F)F)c1cn2cc(-c3cccs3)n(CC3CC3)c(=O)c2n1 [CBK307347] | 105% | – |
| Cc1nc(C2CCCN(C(=O)c3cscn3)C2)c2sccn12 (centres unmarked) [CBK282236] | 88.2% | – |
